The target in test [1] is δ opioid receptors (Rattus norvegicus, UniProt P33533). Description: Opiate Binding Assay, displacement of 3[H]-DSLET from δ receptors. The settings on record: for Mean IC50 μ/δ Ratio: ratio of mean IC50 values for μ and δ, above 1.0 = more δ specific.
In test [2] the target is μ opioid receptors (Rattus norvegicus, UniProt P33535). Nature of the test: Opiate Binding Assay, displacement of 3[H]-DAMPGO from μ receptors.
Where [3] appears, read: read-out: Mean IC50 Value, δ, rat forebrain membranes, 3[H]-DSLET 1.0 nM, 37° C., pH 7.4.
The mark [4] stands for this setting: read-out: Mean IC50 Value, μ, rat forebrain membranes, 3[H]-DAMPGO 2.0 nM, 37° C., pH 7.4.

Where a name gives a salt, the structure may show the parent alone. Read-outs that look alike come from different tables or passages of the source.

δ opioid receptors, sequence (P33533 whole entry): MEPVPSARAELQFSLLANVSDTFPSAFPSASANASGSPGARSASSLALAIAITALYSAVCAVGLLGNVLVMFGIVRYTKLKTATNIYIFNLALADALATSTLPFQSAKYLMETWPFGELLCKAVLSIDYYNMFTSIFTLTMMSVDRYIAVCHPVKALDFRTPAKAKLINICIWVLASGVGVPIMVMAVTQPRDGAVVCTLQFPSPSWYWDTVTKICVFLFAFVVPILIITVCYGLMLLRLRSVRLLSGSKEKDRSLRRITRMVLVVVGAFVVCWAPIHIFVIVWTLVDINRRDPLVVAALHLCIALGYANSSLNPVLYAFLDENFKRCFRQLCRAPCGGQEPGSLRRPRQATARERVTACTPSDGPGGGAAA
μ opioid receptors, sequence (P33535 whole entry): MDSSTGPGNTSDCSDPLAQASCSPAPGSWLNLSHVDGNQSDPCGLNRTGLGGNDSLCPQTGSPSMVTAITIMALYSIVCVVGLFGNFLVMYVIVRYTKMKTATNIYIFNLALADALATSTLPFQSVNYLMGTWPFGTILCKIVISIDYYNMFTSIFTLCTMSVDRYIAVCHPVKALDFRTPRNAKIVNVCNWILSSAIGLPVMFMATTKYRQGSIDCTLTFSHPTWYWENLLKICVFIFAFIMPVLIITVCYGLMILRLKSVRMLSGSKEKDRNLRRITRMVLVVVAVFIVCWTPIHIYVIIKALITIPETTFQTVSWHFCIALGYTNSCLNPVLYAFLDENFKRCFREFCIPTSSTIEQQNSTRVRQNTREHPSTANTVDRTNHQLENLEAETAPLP

As to `Cc1cc(O)cc(C)c1C[C@H](NC(=O)OC(C)(C)C)C(=O)NC(C)(C)CN` [Example 4, 1,1-Dimethylethyl[1S-[[(2-amino-1,1-dimethylethyl)amino]carbonyl]-2-(4-hydroxy-2,6-dimethylphenyl)ethyl]carbamate], in test [1], the “Mean IC50 μ/δ Ratio” value was found to be 10. Also, the IC50 in test [1] (setting [3]) amounted to 0.1 µM; in test [2] (setting [4]), 1 µM.
For `CC(=O)N[C@@H](Cc1ccc(F)cc1)C(=O)NCC(C)(C)NC(=O)[C@@H](N)Cc1c(C)cc(O)cc1C` [Example 6, αS-(Acetylamino)-N-2-[2S-amino-3-(4-hydroxy-2,6-dimethylphenyl) -1-oxopropyl]amino]-2-methyloropyl]-4-fluorobenzenepropanamide, monohydrochloride], in test [1], the IC50 was 0.0018 µM and the “Mean IC50 μ/δ Ratio” value came out at 0.6. In test [2], this molecule gave an IC50 of 0.0011 µM.
As to `Cc1cc(O)cc(C)c1C[C@H](N)C(=O)NC(C)(C)CNC(=O)[C@H](Cc1ccc(F)cc1)NC(=O)OCc1ccccc1` [Example 8, Phenylmethyl[1S-[[[2-[[2S-amino-3-(4-hydroxy-2,6-dimethylohenyl)-1-oxopropyllamino]-methylpropyl]amino]-carbonyl]-2-(4-fluorophenyl)ethyl]carbamate. monohydrochloride], the IC50 is 0.028 µM in test [1] and < 0.01 µM in test [2].
With `Cc1cc(O)cc(C)c1C[C@H](NC(=O)OC(C)(C)C)C(=O)NC(C)(C)CNC(=O)[C@@H](N)Cc1ccccc1` [Example 11, acetic acid salt], in test [1], the IC50 is 0.1 µM and the “Mean IC50 μ/δ Ratio” value is recorded as 10. Further, the IC50 in test [2] was 1 µM.
With `Cc1cc(O)cc(C)c1C[C@H](N)C(=O)NC(C)(C)CNC(=O)[C@@H](N)Cc1ccccc1` [Example 12, αS-amino-N-[2-[2S-amino-3-(4-hydroxy-2,6-dimethylphenyl) -1-oxopropyl]amino]-2-methylpropyl]benzenepropanamide, dihydrochloride], in test [1], the IC50 stood at 0.0314 µM and the “Mean IC50 μ/δ Ratio” value came out at 0.1. Also, the half-maximal inhibitory concentration (IC50) in test [2] came to 0.0034 µM.
For `Cc1cc(O)cc(C)c1C[C@H](N)C(=O)NC(C)(C)CNC(=O)[C@H](Cc1ccccc1)NC(=O)C(F)(F)F` [Example 14, αS-Amino-N-[1,1-dimethyl-2-[[1-oxo-3-phenyl-2S-[[trifluoroacetyl-amino]propyl]aminoethyl]-4-hydroxy-2,6-dimethylbenzenepropanamide, hydrochloride] the same measures were 0.00064 µM, 0.8 and 0.00054 µM.
As for `CC(=O)N[C@H](C(=O)NCC(C)(C)NC(=O)[C@@H](N)Cc1c(C)cc(O)cc1C)c1ccccc1` [Example 20, N-[2-[[2S-(acetylamino)-2-phenylacetyl]amino]-1,1-dimethylethyl]-αS-amino-4-hydroxy-2,6-dimethylbenzenepropanamide, hydrochloride], in test [1], the concentration for half-maximal inhibition (IC50) came to 0.0193 µM and the “Mean IC50 μ/δ Ratio” value worked out at 0.06. Further, the half-inhibitory concentration (IC50) in test [2] came out at 0.0012 µM.
In the same order, the values of `Cc1cc(O)cc(C)c1C[C@H](N)C(=O)NCCNC(=O)[C@H](Cc1ccccc1)NC(=O)OCc1ccccc1` [Example 22, Phenylmethyl[1S-[[(2-(8 [2S-amino-3-[4-hydroxy-2,6-dimethylphenyl) -1-oxopropyl]ethylaminocarbonyl-2-phenylethylcarbamate, monohydrochloride] are 0.0031 µM, 0.8 and 0.0026 µM.
In the case of `Cc1cc(O)cc(C)c1C[C@H](NC(=O)OC(C)(C)C)C(=O)NCCNC(=O)[C@@H](N)Cc1ccccc1` [Example 23, 1,1-dimethylethyl[1S-[[[2-[[(2S-amino-l-oxo-3-phenylpropyl)amino]ethyl]amino]carbonyl]-2-(4-hydroxy-2,6-dimethylohenyl)ethyl]carbamate, acetate (salt)], in test [1], the half-maximal inhibitory concentration (IC50) was 0.1 µM and the “Mean IC50 μ/δ Ratio” value worked out at 10. In addition, the IC50 in test [2] amounted to 1 µM.
Take `Cc1cc(O)cc(C)c1C[C@H](N)C(=O)NCCNC(=O)[C@@H](N)Cc1ccccc1` [Example 24, αS-amino-N-[2-[[2S-amino-3-(4-hydroxy-2,6-dimethylphenyl) -1-oxopropyl]amino]ethyl]benzenepropanamide, dihydrochloride]: in test [1], the concentration for half-maximal inhibition (IC50) worked out at 0.562 µM and the “Mean IC50 μ/δ Ratio” value turned out to be 0.01. In test [2], the IC50 turned out to be 0.0037 µM.
Take `Cc1cc(O)cc(C)c1C[C@H](N)C(=O)NCC(C)(C)NC(=O)[C@H](Cc1ccccc1)NC(=O)OCc1ccccc1` [Example 26, Phenylmethyl[1S-[[[2-[[2S-amino-3-(4-hydroxy-2,6-dimethylphenyl)-1-oxopropyl]amino]-1,1-dimethylethyl1-amino]carbonyl]-2-phenylethyl]carbamate, monohydrochloride]: in test [1], the IC50 stood at 0.0298 µM and the “Mean IC50 μ/δ Ratio” value was 0.6. In test [2], this molecule registered a 50% inhibitory concentration (IC50) of 0.019 µM.
For the molecule `C=CCNC(=O)N[C@@H](Cc1ccccc1)C(=O)NCC(C)(C)NC(=O)[C@@H](N)Cc1c(C)cc(O)cc1C` [Example 28, αS-amino-N-[1,1-dimethyl-2-[1-oxo-3-phenyl-2S-[(2-propenylamino)carbonyl]amino]propyl]amino]ethyl]-4-hydroxy-2,6-dimethylbenzenepropanamide, monohydrochloride], the half-maximal inhibitory concentration (IC50) in test [1] was ~0.002 µM; in test [2], < 0.01 µM.
For `Cc1cc(O)c(C)c(C)c1C[C@H](N)C(=O)NC(C)(C)CNC(=O)[C@H](Cc1ccccc1)NC(=O)OCc1ccccc1` [Example 30, Phenylmethyl[1S[[[2-[[2S-amino-3-(4-hydroxy-2,3,6-trimethylphenyl)-1-oxopropyl]amino]-2-methylpropyl]amino]carbonyl]-2-phenylethyl]carbamate, hydrochloride] the same measures were 0.1 µM and < 0.01 µM.
For `Cc1cc(O)c(C)c(C)c1C[C@@H](N)C(=O)NC(C)(C)CNC(=O)[C@H](Cc1ccccc1)NC(=O)OCc1ccccc1` [Example 31, Phenylmethyl[1S[[[2-[[2R-amino-3-(4-hydroxy-2,3,6-trimethylphenyl) -1-oxopropyl]amino]-2-methylpropyl]amino]carbonyl1-2-phenylethyl]carbamate, hydrochloride], the half-inhibitory concentration (IC50) in test [1] is > 0.1 µM; in test [2], 0.1 µM.
In the same order, the values of `Cc1cc(O)cc(C)c1C[C@H](N)C(=O)NC(C)(C)CNC(=O)[C@H](Cc1ccccc1)NC(=O)NCc1ccccc1` [Example 33, αS-amino-N-[1,1-dimethyl-2-[[1-oxo-3-phenyl-2S-[[[(phenylmethyl)amino]carbonyl]amino]propyl]-amino]ethyl]-4-hydroxy-2,6-dimethylbenzeneprooanamide, hydrochloride] are ~0.002 µM and < 0.01 µM.
Take `CCOC(=O)CNC(=O)N[C@@H](Cc1ccccc1)C(=O)NCC(C)(C)NC(=O)[C@@H](N)Cc1c(C)cc(O)cc1C` [Example 35, hydrochloride]: the results for the 50% inhibitory concentration (IC50) in test [1] (setting [3]) and in test [2] (setting [4]) were ~0.002 µM and < 0.01 µM, respectively.
Regarding `CC(=O)N[C@@H](Cc1ccccc1)C(=O)NC(C)(C)CNC(=O)[C@@H](N)Cc1c(C)cc(O)cc1C` [Example 39, αS-(Acetylamino)-N-[2-[[2S-amino-3-(4-hydroxy-2,6-dimethylphenyl)-1-oxopropyl]amino]-1,1-dimethylethyl]-benzenepropanamide, monohydrochloride], the IC50 in test [1] was 0.0078 µM; in test [2], 0.0047 µM. Further, the “Mean IC50 μ/δ Ratio” value in test [1] came to 0.6.
In the case of `CC(=O)N[C@@H](Cc1ccccc1)C(=O)NCC(C)(C)NC(=O)[C@H](N)Cc1c(C)cc(O)c(C)c1C` [Example 41, αS-(acetylamino)-N-[2-[[2R-amino-3-(4-hydroxy-2,3,6-trimethylphenyl) -1-oxopropyl]amino]-2-methylpropyl]benzenepropanamide, monohydrochloride], in test [1], the half-inhibitory concentration (IC50) is 0.257 µM and the “Mean IC50 μ/δ Ratio” value was 0.5. Moreover, in test [2], the half-inhibitory concentration (IC50) was 0.122 µM.
As for `Cc1cc(O)cc(C)c1C[C@H](N)C(=O)N[C@H](C)CNC(=O)[C@H](Cc1ccccc1)NC(=O)OCc1ccccc1` [Example 46, Phenylmethyl[1S[[[2R-[[2S-amino-3-(4-hydroxy-2,6-dimethylphenyl) -1-oxopropyl]amino]propylamino]carbonyl]-2-phenylethyllcarbamate, hydrochloride], in test [1], the half-inhibitory concentration (IC50) stood at 0.0042 µM and the “Mean IC50 μ/δ Ratio” value is given as 0.2. This molecule also registered an IC50 in test [2] of 0.00088 µM.
For `CC(=O)N[C@@H](Cc1ccccc1)C(=O)NCCNC(=O)[C@@H](N)Cc1c(C)cc(O)cc1C` [Example 48, αS-(Acetylamino)-N-[(2-[[2S-amino-3-(4-hydroxy-2,6-dimethylphenyl)-1-oxopropyl]aminoethyl]benzenepropanamide, hydrochloride], in test [1], the half-inhibitory concentration (IC50) was 0.0029 µM and the “Mean IC50 μ/δ Ratio” value was 0.1. In test [2], this molecule came in with an IC50 of 0.0003 µM.
Turning to `CC(=O)N[C@@H](Cc1c(C)cccc1C)C(=O)NCCNC(=O)[C@@H](N)Cc1ccc(O)cc1` [Example 51, αS-(Acetylamino)-N-[2-[[2S-amino-3-(4-hydroxyphenyl)-1-oxopropyl]amino]ethyl]-2,6-dimethylbenzenepropanamide. hydrochloride], the IC50 in test [1] is > 0.05 µM.
Regarding `CC(=O)N[C@@H](Cc1ccccc1)C(=O)N1CCN(C(=O)[C@@H](N)Cc2c(C)cc(O)cc2C)CC1` [Example 54, N-[1S-[[4-[2-S-Amino-3-(4-hydroxy-2,6-dimethylphenyl)-1-oxopropyl]-1-piperazinyl]carbonyl]-2-phenylethyl]acetamide, monohydrochloride], in test [1], the IC50 is 0.0888 µM and the “Mean IC50 μ/δ Ratio” value is given as 0.04. This molecule gave a half-maximal inhibitory concentration (IC50) in test [2] of 0.0033 µM.
Molecule `CC(=O)N[C@@H](Cc1ccccc1)C(=O)Nc1cccc(NC(=O)[C@@H](N)Cc2c(C)cc(O)cc2C)c1` [Example 57, αS-(Acetylamino)-N-[3[[[2S-amino-3-[4-hydroxy-2,6-dimethylphenyl]-1-oxopropylamino]phenyl]benzenepropanamide, hydrochloride] came in with a 50% inhibitory concentration (IC50) in test [1] of 0.1 µM.

What is called IC50 is the concentration that gives 50% inhibition.

Source of the values: US5272175A, “Substituted tyrosyl diamide compounds” (priority 1992, dated 1993).
